Read-outs that look alike come from different tables or passages of the source.
How the values were obtained:
human IDO1 = target: T1, human IDO1 (Homo sapiens, UniProt P14902); assay: human IDO1 biochemical assay (NFK GreenScreen); settings: human IDO1 biochemical assay
T1 construct: Full-length recombinant human and mouse IDO1 were expressed in Escherichia coli with a hexahistidine tag at the N-terminus; hexahistidine (N); made in house; host or cells: Escherichia coli

A375 + IFNγ (hIDO1) = target: T2, A375 + IFNγ (hIDO1) (Homo sapiens, UniProt P14902); assay: cell-based assay, Trp-catabolizing activity in IFNγ-stimulated A375 cells; settings: IFNγ-stimulated A375 human melanoma cells
T2 construct: host or cells: A375 cells stimulated with IFNγ

[1] = test system: CT26 cells implanted subcutaneously into female BALB/c mice; assay: CT26 mouse model, first study (ProQinase); format: in vivo; settings: 50 mg/kg NTRC 3748-0 b.i.d., 100 mg/kg epacadostat q.d.; for Kyn levels in the tumor: LC-MS/MS, 2 h post last dose; for tumor growth: p.o. from day 8
Description: For the first CT26 mouse model study, performed at ProQinase, 5 × 10^5 CT26 cells were implanted subcutaneously into female BALB/c mice on day 0. […] Tumor growth was monitored using caliper measurement 2 times weekly. The study was terminated at day 22 based on the tumor burden. Tumors and plasma were sampled 2 h post last dose.
(§1) Tissues were homogenized in PBS at a ratio of 1 mg per 10 μl using micro pellet pestles mounted on a Micro-Tube Homogenizer System (Thomas Scientific). After centrifugation, proteins were removed from the homogenized tissue supernatants and plasma samples by precipitation with methanol. The concentrations of inhibitor, Trp and Kyn were determined by LC-MS/MS.

IDO1 [2] = test system: IDO1; parameters: method as in doi:10.1200/JCO.2019.37.7_suppl.358; settings: once-daily oral dosing; cited from earlier work
TDO = settings: cited from earlier work
IDO1 [3] = settings: cited from earlier work
[4] = test system: unstimulated adherent cell samples isolated from ascites of ovarian cancer patients; assay: Trp-catabolizing activity in unstimulated ascites cell samples; format: cell-based, human; settings: for IC50: Homo sapiens
Description: (§2) Ascites was collected from patients with a primary diagnosis of advanced epithelial ovarian cancer during paracentesis for diagnostics or symptom relieve, or during primary debulking surgery. Ascites was filtered and cells were collected by centrifugation as described ([23]). To enrich for tumor cells, ascites cell samples were allowed to adhere overnight to tissue culture plastic. The cell samples were then cultured for 2–3 weeks in advanced RPMI medium (ThermoFisher), supplemented with 10% FBS, 1% glutamax and 1% P/S, with 2 or 3 times passaging of the cells. qPCR analyses of the MUC16, HE4, IDO1, and TDO2 genes were performed for all samples as described above. Five samples which could be cultured over multiple passages were analyzed for cell surface expression of mucin-16 and EpCAM by flow cytometry using FITC-conjugated anti-mucin-16 (AssayPro, #32189-05141) and APC-conjugated anti-EpCAM (Miltenyi, #130-111-117, RRID: AB_2657496) to assure that the cell cultures consisted of malignant cells. IDO1 mRNA and protein levels in these samples were analyzed as described above after incubation with or without 200 ng/ml IFNγ for 24 h. The collection of ascites and the research described was conducted with approval of the medical ethical committee of the Radboud university medical center and informed written consent from each subject.

IDO1 [5] = settings: cited from earlier work; remark: listed apart in the source
IDO1 [6] = settings: cited from earlier work; remark: listed apart in the source
[7] = test system: CD8-positive T cells co-cultured with HEK-hIDO1 cells; assay: co-culture assay of HEK-hIDO1 cells with PBMCs, CFSE proliferation; format: cell-based, human; settings: 7.5 µM Trp; 10 µM NTRC 3883-0, 1 µM epacadostat; 5 days
SW48 (hTDO) = target: T3, SW48 (hTDO) (Homo sapiens, UniProt P48775); assay: cell-based assay, Trp-catabolizing activity in SW48 cells; settings: Trp-catabolizing activity
T3 construct: host or cells: SW48 cells

GL-261-mTDO = GL-261-mTDO (Mus musculus, UniProt P48776); assay: cell-based assay, Trp-catabolizing activity in GL-261-mTDO cells; settings: read-out: inhibition GL-261-mTDO
mTDO = target: T4, mTDO (Mus musculus, UniProt P48776); assay: mouse TDO biochemical assay (NFK GreenScreen)
T4 construct: hexahistidine (C); made in house; host or cells: Escherichia coli
Description: (§3) Full-length recombinant human and mouse IDO1 were expressed in Escherichia coli with a hexahistidine tag at the N-terminus, and purified by affinity chromatography to > 95% purity, as described ([8]). Human and mouse TDO containing a C-terminal hexahistidine tag were analogously expressed and purified to > 95% purity ([8]). The inhibitory activity of compounds was determined with the NFK GreenScreen assay technology under the conditions as described ([8]), except for the reaction buffer for IDO1, which was replaced by 50 mM NaH2PO4, pH 7.0, supplemented with 0.01% Tween-20 and 1% glycerol. Inhibition of the CYP3A4 and CYP2D6 enzymes was determined with the P450-Glo™ Screening System with Luciferin-IPA (Promega, #V9920 and V9890). For determination of IC50 values, the effect of inhibitors was determined in 10-point duplicate dose-response curves. Graphs were fitted to a four-parameter logistics equation in XLfit (ID Business Solutions, Ltd., Guildford, UK) from which IC50 values were calculated.

HEK-hTDO = HEK-hTDO (Homo sapiens, UniProt P48775); assay: cell-based assay, Trp-catabolizing activity in HEK-hTDO cells
melanoma patients = settings: combination with pembrolizumab; cited from earlier work
[8] = test system: IFNγ-stimulated adherent cell samples isolated from ascites of ovarian cancer patients; assay: Trp-catabolizing activity in IFNγ-stimulated ascites cell samples; format: cell-based; settings: Homo sapiens
Description: as §2

[9] = test system: cell lines used in this study; assay: cell viability assays (ATPlite 1Step); settings: in parallel with the cell-based assays
[10] = test system: B16F10-mIDO1 subline j19 in female B6D2F1 mice; assay: B16F10-mIDO1 syngeneic mouse model, intervention study; format: in vivo; settings: 100 mg/kg p.o. b.i.d. from day 3
From the text: For development of the mIDO1-overexpressing B16F10 mouse model, performed at Charles River Laboratories, female B6D2F1 mice were implanted subcutaneously with 1 × 10^6 parental B16F10 cells or B16F10-mIDO1 cells (subline i6 or j19) on day 0 with n = 10 mice per group. A tumor volume of 2000 mm^3 was used as the endpoint of the experiment for the individual animals. To determine the optimal inoculation cell concentration, mice were implanted with 3 × 10^5, 1 × 10^5 or 3 × 10^4 parental or mIDO1-overexpressing B16F10 cells (subline j19) with n = 5 mice per group. The same endpoint of the experiment was used as described above. […] For the intervention study, 3 x 10^5 cells of the B16F10-mIDO1 subline j19 were implanted on day 0, and treatment was started on day 3 with vehicle (DMSO, Kolliphor, 5% mannitol; […]. Four animals were excluded from analysis due to non-treatment-related deaths. Tumors and plasma were sampled 2 h post last dose.
[…]. After centrifugation, proteins were removed from the homogenized tissue supernatants and plasma samples by precipitation with methanol. The concentrations of inhibitor, Trp and Kyn were determined by LC-MS/MS.

[11] = test system: CT26 cells implanted subcutaneously into female BALB/c mice; assay: CT26 mouse model, second study (Charles River); format: in vivo
Description: For the second study, performed at Charles River Laboratories, 3 × 10^5 CT26 cells were implanted subcutaneously into female BALB/c mice on day 0. […] Tumor growth was monitored using caliper measurement 3 times weekly. A tumor volume of 2000 mm^3 was used as the endpoint of the experiment for the individual animals. Tumors were sampled 2 h post last dose.
as §1

human TDO = target: T5, human TDO (Homo sapiens, UniProt P48775); assay: human TDO biochemical assay (NFK GreenScreen)
T5 construct: hexahistidine (C); made in house; host or cells: Escherichia coli
Description: as §3

T2 sequence (P14902 whole entry): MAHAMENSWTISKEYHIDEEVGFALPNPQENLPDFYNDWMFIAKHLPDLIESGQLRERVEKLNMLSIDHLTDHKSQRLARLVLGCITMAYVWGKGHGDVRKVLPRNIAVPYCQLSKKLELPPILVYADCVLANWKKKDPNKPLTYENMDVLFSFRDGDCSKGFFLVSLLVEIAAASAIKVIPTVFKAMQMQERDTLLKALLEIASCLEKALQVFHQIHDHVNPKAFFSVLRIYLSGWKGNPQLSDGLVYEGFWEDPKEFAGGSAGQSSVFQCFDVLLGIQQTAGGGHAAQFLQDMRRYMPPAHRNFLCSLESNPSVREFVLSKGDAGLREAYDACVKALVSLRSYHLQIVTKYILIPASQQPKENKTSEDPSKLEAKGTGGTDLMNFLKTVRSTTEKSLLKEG
T1 sequence (P14902 whole entry): as above
HEK-hTDO, sequence (P48775 whole entry): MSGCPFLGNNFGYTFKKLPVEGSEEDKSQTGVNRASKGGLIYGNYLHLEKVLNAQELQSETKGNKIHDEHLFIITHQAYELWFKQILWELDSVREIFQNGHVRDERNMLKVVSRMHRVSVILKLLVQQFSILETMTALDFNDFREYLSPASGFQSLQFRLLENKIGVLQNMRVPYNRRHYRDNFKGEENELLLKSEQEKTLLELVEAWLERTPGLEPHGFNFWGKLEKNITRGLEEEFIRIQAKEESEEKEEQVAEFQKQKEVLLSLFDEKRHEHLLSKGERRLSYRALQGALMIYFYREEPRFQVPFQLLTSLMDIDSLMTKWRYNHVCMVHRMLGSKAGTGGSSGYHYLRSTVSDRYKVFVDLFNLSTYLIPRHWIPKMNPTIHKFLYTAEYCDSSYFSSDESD
T4 sequence (P48776 whole entry): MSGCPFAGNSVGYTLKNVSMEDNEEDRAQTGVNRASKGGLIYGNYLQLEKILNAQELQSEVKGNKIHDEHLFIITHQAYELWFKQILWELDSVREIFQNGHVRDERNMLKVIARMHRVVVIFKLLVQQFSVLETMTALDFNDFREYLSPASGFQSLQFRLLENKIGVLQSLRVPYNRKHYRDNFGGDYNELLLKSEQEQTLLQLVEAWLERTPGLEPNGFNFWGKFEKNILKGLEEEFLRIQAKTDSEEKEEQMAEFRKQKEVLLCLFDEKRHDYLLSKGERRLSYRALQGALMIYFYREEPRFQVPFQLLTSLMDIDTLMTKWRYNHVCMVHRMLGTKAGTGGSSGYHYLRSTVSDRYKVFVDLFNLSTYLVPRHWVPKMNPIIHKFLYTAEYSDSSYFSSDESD
GL-261-mTDO, sequence (P48776 whole entry): as above
T5 sequence (P48775 whole entry): as the sequence (P48775 whole entry) above
T3 sequence (P48775 whole entry): as above

## Cc1ccccc1C(=O)N1CC(=O)N(O)C1c1cccc(Br)c1 (centres unmarked) [Compound 3d]
Human IDO1
  IC50: 4020 nM
A375 + IFNγ (hIDO1)
  IC50: 21700 nM

## COc1ccccc1C(=O)N1CC(=O)N(O)C1c1cccc(Br)c1 (centres unmarked) [Compound 3e]
Human IDO1
  IC50: > 31600 nM
A375 + IFNγ (hIDO1)
  IC50: > 31600 nM

## O=C1CN(C(=O)c2ccccc2Cl)C(c2cccc(Br)c2)N1O (centres unmarked) [Compound 3f]
Human IDO1
  IC50: 784 nM
A375 + IFNγ (hIDO1)
  IC50: 4600 nM

## O=C1CN(C(=O)c2ccccc2Br)C(c2cccc(Br)c2)N1O (centres unmarked) [Compound 3g]
Human IDO1
  IC50: 1780 nM
A375 + IFNγ (hIDO1)
  IC50: 12500 nM

## O=C1CN(C(=O)c2cc(F)ccc2F)C(c2cccc(Br)c2)N1O (centres unmarked) [Compound 3h]
Human IDO1
  IC50: 600 nM
A375 + IFNγ (hIDO1)
  IC50: 2830 nM

## O=C1CN(C(=O)c2ccc(F)cc2F)C(c2cccc(Br)c2)N1O (centres unmarked) [Compound 3i]
Human IDO1
  IC50: 582 nM
A375 + IFNγ (hIDO1)
  IC50: 2140 nM

## O=C1CN(C(=O)c2c(F)cccc2F)C(c2cccc(Br)c2)N1O (centres unmarked) [Compound 3j]
Human IDO1
  IC50: 198 nM
A375 + IFNγ (hIDO1)
  IC50: 589 nM
[1]
  Kyn levels in the tumor: considerable reduction of Kyn levels
  tumor growth: inhibition of tumor growth

## O=C1CN(C(=O)c2c(F)cccc2F)[C@@H](c2cccc(Br)c2)N1O [Compound 3k]
Human IDO1
  IC50: 2170 nM
A375 + IFNγ (hIDO1)
  IC50: 4590 nM

## C[C@@H](C(=O)Nc1ccc(Cl)cc1)[C@H]1CC[C@@H](c2ccnc3ccc(F)cc32)CC1 [Linrodostat, linrodostat]
IDO1 [2]
  safety and target coverage: safety and good target coverage

## N[C@@H](Cc1c[nH]c2ccccc12)C(=O)O [Trp, L-tryptophan]
TDO
  K M,Trp of TDO: 190 µM
IDO1 [3]
  K M,Trp of IDO1: 6 µM

## NS(=O)(=O)NCCNc1nonc1C(=NO)Nc1ccc(F)c(Br)c1 [epacadostat, reference compound]
[4]
  inhibition of basal Trp-catabolizing activity (in words): no or only minimal inhibition
[4]; mean of samples, read-out: IC50 Mean
  IC50: 7730 nM
[4]; read-out: IC50 ASC 010
  IC50: 9640 nM
[4]; read-out: IC50 ASC 013
  IC50: 9940 nM
[4]; read-out: IC50 ASC 031
  IC50: 8630 nM
[4]; read-out: IC50 ASC 041
  IC50: 4310 nM
IDO1 [5]
  tolerability in human patients: well tolerated
IDO1 [6]
  clinical benefit of the combination over pembrolizumab plus placebo: no clinical benefit
[7]
  effect on IDO1-mediated inhibition of T cell proliferation (in words): relieved the inhibitory effect
SW48 (hTDO)
  IC50: 6460 nM
GL-261-mTDO
  inhibition at 31.6 µM: 28%
mTDO
  IC50: 225 nM
HEK-hTDO
  IC50: 24100 nM
HEK-hTDO; cell-based versus biochemical TDO IC50
  times lower activity on TDO in the HEK-hTDO assay than in the biochemical assay: more than 400 times
Melanoma patients
  objective response: 12 out of 22
[8]; IFNγ-stimulated samples, read-out: IC50
  IC50: 8.3 nM
[8]; IFNγ-stimulated, read-out: IC50 ASC 009
  IC50: 3.7 nM
[8]; IFNγ-stimulated, read-out: IC50 ASC 010
  IC50: 9.3 nM
[8]; IFNγ-stimulated, read-out: IC50 ASC 013
  IC50: 9 nM
[8]; IFNγ-stimulated, read-out: IC50 ASC 031
  IC50: 7.2 nM
[8]; IFNγ-stimulated, read-out: IC50 ASC 041
  IC50: 7.4 nM
[1]
  Kyn levels in the tumor: considerable reduction of Kyn levels
  tumor growth: inhibition of tumor growth
[9]
  cytotoxicity: not cytotoxic
[10]
  tumor growth corrected for the variation in time until tumor establishment: delay in tumor growth
  tumor growth in comparison to vehicle-treated animals: no effect
[11]; 100 mg/kg p.o. b.i.d. from day 8
  tumor growth: no inhibition of tumor growth
[11]; LC-MS/MS, 2 h post last dose, 100 mg/kg p.o. b.i.d.
  Kyn levels in the tumor: considerable reduction of Kyn levels
Human TDO
  IC50: 54 nM

Source: publication PMC7876453, “Targeting Indoleamine 2,3-Dioxygenase in Cancer Models Using the Novel Small Molecule Inhibitor NTRC 3883-0” (Frontiers in Immunology, 2021)
